The subject of experiment [1] is Jurkat T cells. The experiment in a line: Screening of candidate PTD-β-galactosidase fusion proteins for transduction. Type of experiment: cell-based. Particulars: fusion with β-galactosidase. From the text: Based on these two hypotheses and requisites, we searched the gene bank. With the factor that the conventional PTDs have lysines and arginines abundantly, we selected about 10,000 primary candidate genes. Among them, 500 genes were chosen by applying the requisites of signal peptide, and 100 genes of the 500 genes were confirmed as to have alanine and valine. Finally, 20 genes were selected by applying the factors required for the transcription factors, and then the transduction efficiencies were tested therefor. In addition, fusion proteins of each of these candidate PTDs and β-galactosidase were expressed and purified, and the functions of these proteins were detected using Jurkat T cells.

Experiment [2] concerns HUVEC, HeLa, 293 and Jurkat cells. The experiment in a line: Transduction of fusion protein across cell membrane, β-galactosidase staining on slides. Type of experiment: cell-based. Particulars: 0.5 μM, 30 min at 37° C., HeLa, 293, Jurkat cells. Here is the method: HUVEC (ATCC:CRL-1730) (2×10^5), HeLa (ATCC:CCL-2) (2×10^5), and 293 (ATCC:CRL-1573) (2×10^5), which were incubated in 10% FBS (Fetal Bovine Serum) of DMEM, were respectively transferred to Lab-tek II chamber slides. Jurkat cells (ATCC:CRL-10915) (2×10^5) incubated in 10% EBS RPMI were transferred to poly-L-lysin coated slides. Each of the slides was treated with the purified 0.5 μM of Mph-1-β-galactosidase for 30 min at 37° C. in 5% CO2 incubator. And the supernatants were removed from the slides. The incubation mixtures were washed using ice-cold PBS four times and then were solidified with 2% formaldehyde solution for 10 min. After removing the solidified solutions, the mixtures were washed again using ice-cold PBS four times. Subsequently, the respective mixtures were treated with 700 μl of β-galactosidase staining solution (Roche. Colo.) for 45 min at 37° C. in 5% CO2 incubator. Following the staining, the mixtures were washed with ice-cold PBS four times after removing the supernatants. Next, the mixtures were mounted with 70% glycerol on the microscope slides.

In the case of “Mph-1-BTM: amino acid sequence 858 to 868 of Mph-1, a mouse transcription factor (SEQ ID NO:1) (YARVRRRGPRR; Biomolecule transduction motif)”, the transduction ability result in experiment [1] is on record as “unexpectedly significant transduction ability”.
In the case of “β-gal: β-galactosidase reporter protein alone, without transduction peptide”, the “transduction across the cell membranes (β-galactosidase staining)” value in experiment [2] is “not transduced at all”.

For the origin of these results see patent publication US7700109B2, “Biomolecule transduction motif Mph-1-BTM and the use thereof” (ForHumanTech. Co., Ltd., priority 2002, dated 2010).
